Data reported in US6365593B2, “Methylxanthines in the diagnosis and treatment of autistic disorder” (Repligen Corporation, priority 2000, dated 2002).
“Also recorded” adds a separate entry of the source.

Columns and labels:
[1] = tested on: 7-MX levels in the first morning urine; experiment: 7-MX levels in first morning urine of autistic subjects after secretin infusion (time course); format: in vivo, human
Description: Urine samples from individuals, e.g., children, suspected of having autistic disorder are collected in 50 ml polypropylene centrifuge tubes and stored at a temperature below freezing, e.g., at −20° C. The samples are later thawed and centrifuged before pre-purification by solid phase extraction using e.g., SEP-PAK™ columns. The following is a suitable protocol for SEP-PAK™ extraction of one urine sample:
Suitable HPLC conditions to detect and analyze the methylxanthines and xanthines in a urine sample are as follows:
Samples are normalized for urinary output and variations in dilution using a standard creatinine assay. A portion of each sample is assayed to determine the creatinine content. Each sample is then diluted with water to achieve a standard creatinine concentration of […] in 100 μl of the sample.
Once the urine samples are properly pretreated, the level of methylxanthine, e.g., 7-MX, or xanthine is determined. […]
Samples of urine from autistic and non-autistic subjects were collected and analyzed for the presence of various metabolites before and after secretin treatment. Urine samples were analyzed by HPLC with a 4.5×100 mm C18 column detected at 215 nm and 280 nm. […]
The 7-MX levels in the first morning urine of autistic subjects after secretin treatment were monitored. […]

7-MX level in urine = experiment: Double blind study: urinary 7-MX in autistic children after secretin or placebo; format: in vivo, human; details: groups 0 and 1, basal vs one week after secretin
Source text: The urine samples of a double blind study on the effects of secretin on autistic children were available for further investigation on the changes of 7-MX after secretin treatment. Participants were divided into two groups. One group received secretin first, then placebo, and the other group received placebo first, then secretin. Three samples were collected for each subject: (i) basal urine, (ii) one week after secretin, (iii) one week after placebo. The changes of 7-MX level are shown in FIG. 8 (changes of 7-MX levels in double blind group “0”) and FIG. 9 (changes of 7-MX in double blind group “1”) for the two groups of patients. […] Only one subject in group 1 was an exception, where the basal 7-MX level was 10 times higher than the average.

[2] = tested on: symptoms of autistic disorder; details: individuals diagnosed with autistic disorder; cited from earlier work

With “secretin: a hormone shown to improve symptoms of autistic disorder; stimulates secretion of pancreatic bicarbonate fluid” the “change of 7-MX level (HPLC peak RT5.5) in urine after secretin treatment” value ([1]; autistic children, first morning urine, after secretin infusion) was “increase in size after secretin treatment in some children; also recorded: increases during the first week after secretin infusion and then decreases; also recorded: increased, and then decreased after about one week”, the “dose dependence of urinary 7-MX level after secretin” value ([1]; one autistic child, first treatment about 4 μg, second about 15 μg secretin) was “a higher dose of secretin would lead to a higher level of 7-MX in the urine” and the “change of urinary 7-MX level one week after secretin” value (7-MX level in urine) was “increased or stayed at the same level, but did not decrease; also recorded: increased the excretion of 7-MX and other methylxanthines”. The “effect on symptoms of autistic disorder” value [2] was “improve symptoms”.
